According to patent US12187816B2, “Macrocyclic compounds and methods of use thereof” (Genentech, Inc., priority 2020, dated 2025):
Starred links: 1 amine or outer side, 2 acyl side, 3 side chain; linkers in the order of their positions; H or OH if unused. Positions of bridges follow the written chain, without caps; N, C: chain ends. Non-standard residues stand in square brackets, D forms with d. Residues, ends and D or L forms follow the SMILES beside them. Groups on a side chain read outwards from the residue. *: point of attachment. β3hPhg(4-(4-MeThiazol-5-yl)) = Cc1ncsc1-c1ccc([C@@H](CC(=O)[*:2])N[*:1])cc1; JQ1acid = Cc1sc2c(c1C)C(c1ccc(Cl)cc1)=N[C@@H](CC(=O)*)c1nnc(C)n1-2; dPhg(4-(4-Me-thiazol-5-yl)) = Cc1ncsc1-c1ccc([C@@H](N)C(=O)O)cc1; Phg(4-(4-Me-thiazol-5-yl)) = Cc1ncsc1-c1ccc([C@H](N)C(=O)O)cc1; X2 = COc1ccc2c(c1)C(c1ccc(Cl)cc1)=N[C@@H](CC(=O)*)c1nnc(C)n1-2; X12 = Cc1sc2c(c1C)C(c1ccc(Cl)cc1)=N[C@H](CC(=O)*)c1nnc(C)n1-2; X6 = Cc1ncsc1-c1ccc([C@H](CC(=O)[*:2])N[*:1])cc1; dBip = N[C@H](Cc1ccc(-c2ccccc2)cc1)C(=O)O; NHCH2CH2SCH2CO = O=C(CSCCN[*:1])[*:2]; Hyp = O=C(O)[C@@H]1C[C@@H](O)CN1; d4Pal = N[C@H](Cc1ccncc1)C(=O)O; Tle = CC(C)(C)[C@H](N)C(=O)O; AEEEA = NCCOCCOCCOCC(=O)O; dDap = NC[C@@H](N)C(=O)O; Ahx = NCCCCCC(=O)O; AEA = NCCOCC(=O)O

target: T1, BRD4 (Homo sapiens, UniProt O60885); assay: BRD4 degradation assay in EOL1 cells (immunofluorescence imaging); type: cell-based; details: EoL-1 eosinophilic leukemia cells, 4 hours treatment, nuclear BRD4 immunofluorescence
T1 construct: Mean 488 intensity of BRD4 quantitated in nuclear region; endogenous in cells; host or cells: EoL-1 eosinophilic leukemia cells
Procedure: BRD4 Degradation Assay in EOL1 Cells
EoL-1 eosinophilic leukemia cells were seeded on day 1 at a density of 45,000 cells per well in Corning PureCoat Amine Microplates, (Corning #354719) in 45 μL/well of assay media (RPMI, 10% FBS, containing L-glutamine). After cells attached to cell plate, compounds were serially diluted ⅓ in dimethylsulfoxide (DMSO) to create 20-point dilutions across a 384 well v-bottom polypropylene microplate (Greiner #781091). 2 μL of each sample from the serial dilution was transferred to 98 μL of assay media as an intermediate dilution. 5 μL of each well of the intermediate dilution was added to 45 μL of cell plate. Columns 1, 2, 23 and 24 were treated with only 0.2% final concentration of DMSO for data normalization as “neutral controls”. After compound treatment, cell plates were stored in a 37° C. incubator for 4 hours. After 4 hours cells were fixed in 3.7% w/v final concentration of paraformaldehyde by addition of 15 μL of 16% w/v paraformaldehyde (Electron Microscopy Sciences #15710-S) directly to the 50 μL media and compound in the cell plate. Cell plate was incubated at RT for 20 minutes. Well contents were aspirated and washed with 100 μL/well PBS 3 times. 50 ul/well of phosphate Buffered Saline (PBS) (pH 7.5) containing 0.5% w/v bovine serum albumen, 0.5% w/v Triton X-100 (Block/Permeabilization Buffer) was added to each well. Samples were incubated for 20 minutes. Well contents were aspirated and washed 3 times with 100 μL/well of PBS. PBS was aspirated from the well and 50 μL per well of EoL-1 Block Buffer (PBS containing 10% Normal Goat Serum (AbCam #ab7481)) was added to each well. Plates were incubated at room temperature for 30 minutes. Block buffer was decanted from the wells. Immunofluorescence staining of BRD4 was carried out by diluting mAB Anti-BRD4 [EPR5150] antibody (Abcam 128874) 1:500 into Antibody Dilution Buffer (PBS, 2% Normal Goat Serum). 25 μL per well of BRD4 antibody diluted in buffer was added and incubated overnight at 4° C.
On day-2 samples were washed 3 times with 100 μL/well of PBS. 25 μL/well of secondary antibody solution (Goat Anti-Rabbit IgG, DyLight 488 Conjugated Highly Cross-adsorbed Thermo Fisher #35553) and Hoechst 33342 1 μg/ml diluted in Antibody Dilution Buffer) were dispensed into each well. Hoechst 33342 only was added to bottom 3 columns for data normalization as “inhibitor controls”. Samples were incubated for 2 hours at room temperature. Samples were washed 3 times with 100 μL PBS. Quantitative fluorescence imaging of BRD4 was carried out using an Opera Phenix High-Content Screening System. Fluorescent images of the samples were captured using 488 nm and 405 nm channels. Hoechst channel was used to identify nuclear region. Mean 488 intensity of BRD4 quantitated in nuclear region. Data analysis was carried out using Genedata Screener, with DMSO and no primary antibody control treated samples being used to define the 0% and 100% changes in BRD4. The dose-response log(inhibitor) vs. response used to define the inflexion point of curve (DC50) and the plateau of the maximal effect.
The individual topological polar surface area (TPSA) and cLogP values were calculated using Chemdraw v. 15.1 (PerkinElmer). Half life of the ternary VHL/BD1 and VHL/BD2 complexes, DC50 of BRD4 in EOL1 cells, topological polar surface area of a molecule (TPSA) and c log P (lipophilicity) for compounds described herein are provided in Table 3.

| Compound | DC50 [nM] |
| --- | --- |
| Cc1ncsc1-c1ccc([C@H]2NC(=O)[C@@H]3C[C@@H](O)CN3C(=O)[C@H](C(C)(C)C)NC(=O)CCCCCNC(=O)[C@@H](CNC(=O)C[C@@H]3N=C(c4ccc(Cl)cc4)c4c(sc(C)c4C)-n4c(C)nnc43)NC(=O)CNC2=O)cc1 [Compound 38] (cyclo([Ahx][Tle][Hyp][dPhg(4-(4-Me-thiazol-5-yl))]G[dDap](JQ1acid))) | < 1000 |
| Cc1ncsc1-c1ccc([C@@H]2NC(=O)[C@@H]3C[C@@H](O)CN3C(=O)[C@H](C(C)(C)C)NC(=O)CCCCCNC(=O)[C@@H](CNC(=O)C[C@@H]3N=C(c4ccc(Cl)cc4)c4c(sc(C)c4C)-n4c(C)nnc43)NC(=O)CNC2=O)cc1 [Compound 39] (cyclo([Ahx][Tle][Hyp][Phg(4-(4-Me-thiazol-5-yl))]G[dDap](JQ1acid))) | < 1000 |
| Cc1sc2c(c1C)C(c1ccc(Cl)cc1)=N[C@@H](CC(=O)NC[C@H]1NC(=O)CNC(=O)[C@@H](Cc3ccc(-c4ccccc4)cc3)NC(=O)[C@@H]3C[C@@H](O)CN3C(=O)[C@H](C(C)(C)C)NC(=O)COCCNC1=O)c1nnc(C)n1-2 [Compound 40] (cyclo([AEA][Tle][Hyp][dBip]G[dDap](JQ1acid))) | < 50 |
| Cc1sc2c(c1C)C(c1ccc(Cl)cc1)=N[C@@H](CC(=O)NC[C@H]1NC(=O)[C@@H](C)NC(=O)[C@@H](Cc3ccc(-c4ccccc4)cc3)NC(=O)[C@@H]3C[C@@H](O)CN3C(=O)[C@H](C(C)(C)C)NC(=O)COCCNC1=O)c1nnc(C)n1-2 [Compound 41] (cyclo([AEA][Tle][Hyp][dBip][dA][dDap](JQ1acid))) | < 50 |
| Cc1sc2c(c1C)C(c1ccc(Cl)cc1)=N[C@@H](CC(=O)NC[C@H]1NC(=O)[C@@H](C(C)C)NC(=O)[C@@H](Cc3ccc(-c4ccccc4)cc3)NC(=O)[C@@H]3C[C@@H](O)CN3C(=O)[C@H](C(C)(C)C)NC(=O)COCCNC1=O)c1nnc(C)n1-2 [Compound 42] (cyclo([AEA][Tle][Hyp][dBip][dV][dDap](JQ1acid))) | < 50 |
| Cc1sc2c(c1C)C(c1ccc(Cl)cc1)=N[C@@H](CC(=O)NC[C@H]1NC(=O)[C@@H](Cc3ccncc3)NC(=O)[C@@H](Cc3ccc(-c4ccccc4)cc3)NC(=O)[C@@H]3C[C@@H](O)CN3C(=O)[C@H](C(C)(C)C)NC(=O)COCCNC1=O)c1nnc(C)n1-2 [Compound 43] (cyclo([AEA][Tle][Hyp][dBip][d4Pal][dDap](JQ1acid))) | < 50 |
| Cc1sc2c(c1C)C(c1ccc(Cl)cc1)=N[C@@H](CC(=O)NC[C@H]1NC(=O)[C@@H](Cc3ccccc3)NC(=O)[C@@H](Cc3ccc(-c4ccccc4)cc3)NC(=O)[C@@H]3C[C@@H](O)CN3C(=O)[C@H](C(C)(C)C)NC(=O)COCCNC1=O)c1nnc(C)n1-2 [Compound 44] (cyclo([AEA][Tle][Hyp][dBip][dF][dDap](JQ1acid))) | < 50 |
| Cc1sc2c(c1C)C(c1ccc(Cl)cc1)=N[C@@H](CC(=O)NC[C@H]1NC(=O)[C@@H](Cc3ccc(-c4ccccc4)cc3)NC(=O)[C@@H](Cc3ccc(-c4ccccc4)cc3)NC(=O)[C@@H]3C[C@@H](O)CN3C(=O)[C@H](C(C)(C)C)NC(=O)COCCNC1=O)c1nnc(C)n1-2 [Compound 45] (cyclo([AEA][Tle][Hyp][dBip][dBip][dDap](JQ1acid))) | < 1000 |
| Cc1ncsc1-c1ccc([C@H]2NC(=O)[C@@H]3C[C@@H](O)CN3C(=O)[C@H](C(C)(C)C)NC(=O)CSCCNC(=O)[C@@H](CNC(=O)C[C@@H]3N=C(c4ccc(Cl)cc4)c4c(sc(C)c4C)-n4c(C)nnc43)NC(=O)CNC2=O)cc1 [Compound 46] (cyclo(G[dDap](JQ1acid)[NHCH2CH2SCH2CO][Tle][Hyp][dPhg(4-(4-Me-thiazol-5-yl))])) | < 1000 |
| Cc1ncsc1-c1ccc([C@@H]2NC(=O)[C@@H]3C[C@@H](O)CN3C(=O)[C@H](C(C)(C)C)NC(=O)CSCCNC(=O)[C@@H](CNC(=O)C[C@@H]3N=C(c4ccc(Cl)cc4)c4c(sc(C)c4C)-n4c(C)nnc43)NC(=O)CNC2=O)cc1 [Compound 47] (cyclo(G[dDap](JQ1acid)[NHCH2CH2SCH2CO][Tle][Hyp][Phg(4-(4-Me-thiazol-5-yl))])) | > 20000 |
| Cc1sc2c(c1C)C(c1ccc(Cl)cc1)=N[C@@H](CC(=O)NC[C@H]1NC(=O)CNC(=O)[C@@H](Cc3ccc(-c4ccccc4)cc3)NC(=O)[C@@H]3C[C@@H](O)CN3C(=O)[C@H](C(C)(C)C)n3cc(nn3)COCCNC1=O)c1nnc(C)n1-2 [Compound 48] | < 50 |
| Cc1ncsc1-c1ccc([C@H]2NC(=O)[C@@H]3C[C@@H](O)CN3C(=O)[C@H](C(C)(C)C)NC(=O)CSC[C@H](C(N)=O)NC(=O)[C@@H](CNC(=O)COCCOCCOCCNC(=O)C[C@@H]3N=C(c4ccc(Cl)cc4)c4c(sc(C)c4C)-n4c(C)nnc43)NC(=O)CNC2=O)cc1 [Compound 49] ({CH2CO}-[Tle][Hyp][dPhg(4-(4-Me-thiazol-5-yl))]G[dDap]([AEEEA-JQ1acid])[dC]-NH2; thioether N-6) | > 20000 |
| COc1ccc2c(c1)C(c1ccc(Cl)cc1)=N[C@@H](CC(=O)NC[C@H]1NC(=O)CNC(=O)[C@@H](c3ccc(-c4scnc4C)cc3)NC(=O)[C@@H]3C[C@@H](O)CN3C(=O)[C@H](C(C)(C)C)NC(=O)CSC[C@H](C(N)=O)NC1=O)c1nnc(C)n1-2 [Compound 50] ({CH2CO}-[Tle][Hyp][dPhg(4-(4-Me-thiazol-5-yl))]G[dDap](X2)[dC]-NH2; thioether N-6) | < 1000 |
| COc1ccc2c(c1)C(c1ccc(Cl)cc1)=N[C@@H](CC(=O)NC[C@H]1NC(=O)CNC(=O)[C@H](c3ccc(-c4scnc4C)cc3)NC(=O)[C@@H]3C[C@@H](O)CN3C(=O)[C@H](C(C)(C)C)NC(=O)CSC[C@H](C(N)=O)NC1=O)c1nnc(C)n1-2 [Compound 51] ({CH2CO}-[Tle][Hyp][Phg(4-(4-Me-thiazol-5-yl))]G[dDap](X2)[dC]-NH2; thioether N-6) | > 20000 |
| COc1ccc2c(c1)C(c1ccc(Cl)cc1)=N[C@@H](CC(=O)NC[C@H]1NC(=O)[C@@H](C(C)C)NC(=O)[C@@H](Cc3ccc(-c4ccccc4)cc3)NC(=O)[C@@H]3C[C@@H](O)CN3C(=O)[C@H](C(C)(C)C)NC(=O)COCCNC1=O)c1nnc(C)n1-2 [Compound 52] (cyclo([AEA][Tle][Hyp][dBip][dV][dDap](X2))) | < 50 |
| Cc1ncsc1-c1ccc([C@H]2NC(=O)[C@@H]3C[C@@H](O)CN3C(=O)[C@H](C(C)(C)C)NC(=O)CSC[C@H](C(N)=O)NC(=O)[C@@H](CNC(=O)C[C@H]3N=C(c4ccc(Cl)cc4)c4c(sc(C)c4C)-n4c(C)nnc43)NC(=O)CNC2=O)cc1 [Compound 53] ({CH2CO}-[Tle][Hyp][dPhg(4-(4-Me-thiazol-5-yl))]G[dDap](X12)[dC]-NH2; thioether N-6) | > 20000 |
| Cc1ncsc1-c1ccc([C@@H]2CC(=O)NCC(=O)N[C@H](CNC(=O)C[C@@H]3N=C(c4ccc(Cl)cc4)c4c(sc(C)c4C)-n4c(C)nnc43)C(=O)NCCOCC(=O)N[C@@H](C(C)(C)C)C(=O)N3C[C@H](O)C[C@H]3C(=O)N2)cc1 [Compound 54] (cyclo([AEA][Tle][Hyp][X6]G[dDap](JQ1acid))) | < 50 |
| Cc1ncsc1-c1ccc([C@H]2CC(=O)NCC(=O)N[C@H](CNC(=O)C[C@@H]3N=C(c4ccc(Cl)cc4)c4c(sc(C)c4C)-n4c(C)nnc43)C(=O)NCCOCC(=O)N[C@@H](C(C)(C)C)C(=O)N3C[C@H](O)C[C@H]3C(=O)N2)cc1 [Compound 55] (cyclo([AEA][Tle][Hyp][β3hPhg(4-(4-MeThiazol-5-yl))]G[dDap](JQ1acid))) | < 1000 |
| Cc1sc2c(c1C)C(c1ccc(Cl)cc1)=N[C@@H](CC(=O)NC[C@H]1NC(=O)[C@@H](C)NC(=O)[C@@H](Cc3ccc(-c4ccccc4)cc3)NC(=O)[C@@H]3C[C@@H](O)CN3C(=O)[C@H](C(C)(C)C)n3cc(nn3)COCCNC1=O)c1nnc(C)n1-2 [Compound 56] | < 50 |
